Among the data in publication PMC3493512, “Structures of SHV-1 β-Lactamase with Penem and Penam Sulfone Inhibitors That Form Cyclic Intermediates Stabilized by Carbonyl Conjugation” (PLoS ONE, 2012) are Ki values, retold here.

This test concerns the target T1, SHV-1 β-lactamase (Klebsiella pneumoniae, UniProt P0AD64).
T1 construct: gene bla
In words: X-ray crystal structure at […] Å (soak); Ki by direct competition kinetics. It is filed as biochemical.

T1 sequence (P0AD64 22-286): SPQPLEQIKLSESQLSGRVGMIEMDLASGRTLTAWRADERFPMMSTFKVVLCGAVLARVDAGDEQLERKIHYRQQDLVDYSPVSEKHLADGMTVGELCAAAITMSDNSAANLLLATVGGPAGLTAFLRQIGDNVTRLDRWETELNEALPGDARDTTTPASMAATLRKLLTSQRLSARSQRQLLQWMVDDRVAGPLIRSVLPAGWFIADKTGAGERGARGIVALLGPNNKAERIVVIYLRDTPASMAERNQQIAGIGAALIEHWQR

By Ki is commonly meant the dissociation constant of the complex between target and ligand, obtained from inhibition or displacement. High values mean a looser hold on the target, low ones a stronger hold on the target. In the case of `C[C@]1(COC(=O)Cc2ccccc2)[C@H](C(=O)O)N2C(=O)/C(=C/c3ccccn3)[C@H]2S1(=O)=O` [SA1-204], affinity was put at a Ki of 42 ± 4 nM.
